Details of series [1]: method as in doi:10.3390/scipharm88020025, PMID 17435173, PMID 24712707. To be noted: water or methanol, cited from earlier work.
The test system of series [2] is LPS-activated THP-1 cells. Kind of series: Inflammatory cytokine assay, LPS-activated THP-1 cells (ELISA). To be noted: LPS 0.1 μg/mL, 24 h, three concentrations. On the technique in general: ELISA stands for enzyme-linked immunosorbent assay.
Description: This assay evaluated the impact of various compounds on cytokine production in THP1 cells stimulated with LPS, as previously described with some modifications.[35] Following treatment, key cytokines were measured to enhance our understanding of the modulatory effects of these compounds on inflammation.
The cells were cultured for 24 h at 37 °C and 5% CO2. After the culture period, the cell free supernatants were harvested and stored at −80 °C until cytokine measurement.
The cytokines IL-1beta, IL-6 and TNF were measured using an ELISA Development Kit (R&D, biotechne, Wiesbaden, Germany) according to the recommendations of the manufacturer.
The test system of another series is nonactivated THP-1 cells. Kind of series: Inflammatory cytokine assay, nonactivated THP-1 cells (ELISA). To be noted: 24 h.
Series [3] deals with T1, MOR (Homo sapiens, UniProt P35372). Kind of series: cell-based. The settings on record: for Emax: read-out: Emax for G-protein activation. Here is the method:
The G-protein pathway activation was performed as previously described.[40] Briefly, the G-protein pathway activation was measured using HitHunter cAMP assays, which quantify cAMP, a secondary messenger involved in G-protein-coupled receptor (GPCR) signaling. This assay employed Enzyme Fragment Complementation (EFC) technology with β-galactosidase (β-Gal) as the reporter enzyme. Upon activation, β-Gal produces a chemiluminescent signal that is detected using a microplate reader, providing a quantitative measure of G-protein pathway activity.

The target in series [4] is T1, MOR. The experiment in a line: cell-based. To be noted: for Emax: read-out: Emax for β-arrestin recruitment. As for the experimental part: The β-Arrestin recruitment assay was performed as previously described.[41] Briefly, the PathHunter β-Arrestin assay was used to monitor GPCR activation through β-arrestin recruitment. This assay also utilized EFC technology, with β-Gal as the reporter enzyme. In this system, the Enzyme Acceptor (EA) fragment was fused to β-arrestin, and the ProLink (PK) fragment was fused to the GPCR of interest. Upon GPCR activation, EA and PK complementation restored β-Gal activity, generating a chemiluminescent signal that was measured using PathHunter Detection Reagents.
On the technique in general: Recruitment of arrestin is a read-out of receptor activation apart from second messengers.

Series [5] has as its target T2, MOR expressed in human embryonic kidney 293 (HEK-293) cells (Homo sapiens, UniProt P35372).
T2 construct: host or cells: HEK-293
The experiment in a line: In vitro radioligand competition binding assay against [3H]DAMGO (Eurofins). Here is the method:
The Ki values were determined from the measured IC50 values using the Cheng-Prusoff equation,[39] Ki = IC50/[1 + ([L]/Kd)], where [L] and Kd are the concentration and binding affinity of the radiolabeled ligand in the assay, respectively.

[6] abbreviates: compared with the reported EC50 of morphine.

Read-outs that look alike come from different tables or passages of the source.

T2 sequence (P35372 whole entry): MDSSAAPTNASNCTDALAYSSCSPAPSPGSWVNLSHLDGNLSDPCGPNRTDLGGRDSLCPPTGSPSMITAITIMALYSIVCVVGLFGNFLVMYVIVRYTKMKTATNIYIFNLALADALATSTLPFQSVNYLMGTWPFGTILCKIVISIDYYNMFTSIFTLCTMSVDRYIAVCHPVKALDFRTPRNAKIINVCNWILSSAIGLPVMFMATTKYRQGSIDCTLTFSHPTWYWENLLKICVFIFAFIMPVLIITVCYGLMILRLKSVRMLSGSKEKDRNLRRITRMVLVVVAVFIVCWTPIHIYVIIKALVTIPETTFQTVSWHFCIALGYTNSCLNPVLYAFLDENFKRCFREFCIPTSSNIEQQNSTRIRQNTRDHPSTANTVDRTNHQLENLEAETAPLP
T1 sequence (P35372 whole entry, the tested form may be a part): as the sequence (P35372 whole entry) above

Regarding `Cc1c(N(C)CS(=O)(=O)O)c(=O)n(-c2ccccc2)n1C` [metamizole, metamizole sodium], the “hydrolysis to 4-methylaminoantipyrine (4-MAA)” value in series [1] (acidic conditions) was “more rapidly”; in series [1] (neutral pH) it was “slowly”. Besides, in series [2], the “effect on LPS-induced TNF release” value is “dose-dependent and significant upregulation”. Further, in the series on nonactivated THP-1 cells, the “induction of pro-inflammatory cytokines (TNF, IL-1beta, IL-6)” value (shortened to “induction of pro-inflammatory cytokines”) is “did not see any induction”.

With `CN1CC[C@]23c4c5ccc(O)c4O[C@H]2[C@@H](O)C=C[C@H]3[C@H]1C5` [morphine], in series [2], the “effect on LPS-induced TNF release” value was “no significant effect”. In addition, the “induction of pro-inflammatory cytokines” value in the series with nonactivated THP-1 cells is given as “did not see any induction”.

By Emax is commonly meant the size of the effect at its maximum, as opposed to the concentration needed. As to `COc1ccsc1CNCC[C@@]1(c2ccccn2)CCOC2(CCCC2)C1` [TRV-130, oliceridine, reference compound], the maximal effect (Emax) at MOR [3] is 100%; on MOR [4], 7.9%.

Broadly, the Ki is a measure of affinity in units of concentration, obtained from inhibition or displacement. `Cc1c(N(C)Cc2cc3c4c(c2O)O[C@H]2[C@@H](O)C=C[C@H]5[C@@H](C3)N(C)CC[C@@]452)c(=O)n(-c2ccccc2)n1C` [metamorphine]: in series [2], the “effect on LPS-induced TNF release” value was “no significant effect”. Further, the “fold difference to morphine, G-protein activation” value on MOR [3] (setting [6]) came out at 22 fold. Further, the Emax at MOR [3] is 97%; on MOR [4], 70%. Besides, the “induction of pro-inflammatory cytokines” value in the series on nonactivated THP-1 cells is on record as “did not see any induction”. The “fold less potent against MOR than morphine (Ki)” value in series [5] (compared with the reported Ki of morphine) is listed as “about 8 fold”. For the same compound, in series [5] (read-out: half-maximal inhibitory concentration (IC50), MOR binding), the IC50 is 7.3 nM. In series [5] (read-out: inhibitory constant (Ki), MOR binding), the Ki came out at 3 nM. Besides, on MOR [4] (setting [6]), the “fold difference to morphine, β-arrestin recruitment” value worked out at 8 fold.

The record behind these values is publication PMC11915030 (ACS Pharmacology & Translational Science, 2025).
